According to publication PMC9841524, “Structure-Based Rational Design of Small α-Helical Peptides with Broad-Spectrum Activity against Multidrug-Resistant Pathogens” (Journal of Medicinal Chemistry, 2022):
Like-named read-outs stand apart in the source and are kept apart here. Where no end group is shown, it is not given here.

Legend:
MRSA (ATCC BAA-1556) = conditions: broth microdilution (CLSI), CAMHB, 37 °C, 24 h
Procedure: (§1) Description of the characteristics and growth conditions of various bacterial strains used in the study are provided in the Supporting Information (Table S3). Antibacterial susceptibility testing was carried out using a standard microtiter dilution method recommended by the clinical and laboratory standard institute (CLSI) and measured as a minimum inhibitory concentration (MIC), the lowest peptide concentration that inhibited bacterial growth. Briefly, the overnight grown cultures in the recommended broth for each bacterial strain were diluted in cation-adjusted Mueller Hinton Broth (CAMHB) to give an inoculum of 10^6 colony-forming units (CFU)/mL. A 2-fold serially diluted test peptide solution (100 μL) was added to the microtiter plates. After adding bacterial suspension (100 μL), the plates were incubated at 37 °C for 24 h, and the MICs were determined. The same protocol was used to determine the MICs in the presence of salts and serum except using the media supplemented with various cationic salts (150 mM NaCl, 4.5 mM KCl, 6 mM NH4Cl, 1 mM MgCl2, and 2 mM CaCl2) or 25% FBS. The data was acquired from three independent assays performed in triplicate.
(§2) The bacterial strains employed in this study were obtained from the American Type Culture Collection (ATCC). Each strain was propagated as recommended by the ATCC, and each strain was stored as a frozen glycerol stock at -80°C. A bacterial colony was grown on the appropriate agar as indicated in Table S1 and was used to inoculate the appropriate broth. The culture was incubated at the appropriate conditions, as mentioned in Table S1. Following the incubation, the culture was diluted to an optical density 625 nm (OD625) of 0.1 in cation adjusted Mueller Hinton Broth (CAMHB), which is equivalent to 1 × 10^8 CFU/mL. The culture was further diluted to 1 × 10^6 CFU/mL, which was used to conduct the MIC determination assay. For the S. pneumoniae strains, CAMHB + 2.5% lysed horse blood was required for the assay. The strains with their […]
(§3) Table S3. Description of the characteristics and growth conditions of various bacterial strains

E. coli (ATCC 25922) = conditions: broth microdilution (CLSI), CAMHB, 37 °C, 24 h
Procedure: as §1, §2, §3

S. aureus (ATCC 29213) = assay: MIC, standard microtiter dilution (CLSI); format: cell-based; conditions: broth microdilution (CLSI), CAMHB, 37 °C, 24 h
Procedure: as §1, §2, §3

[1] = tested on: P. aeruginosa (ATCC 27883); assay: MIC, standard microtiter dilution (CLSI); format: cell-based, Pseudomonas aeruginosa; conditions: broth microdilution (CLSI), CAMHB, 37 °C, 24 h
Procedure: as §1, §2, §3

[2] = tested on: K. pneumoniae (ATCCBAA-1705); assay: MIC, standard microtiter dilution (CLSI); format: cell-based, Klebsiella pneumoniae; conditions: broth microdilution (CLSI), CAMHB, 37 °C, 24 h
Procedure: as §1, §2, §3

[3] = tested on: human red blood cells (hRBCs); assay: Hemolytic assay; format: cell-based; conditions: 2 h, 37 °C
Procedure: The hemolytic activity of all peptides (1a–8d) was determined using hRBC. The assay was conducted by adding 75 μL of 2-fold serially diluted peptides to 75 μL of hRBC suspension (4% in PBS). The plates were incubated for 2 h at 37 °C without agitation. In order to determine the hemolysis at each tested concentration of peptides, the plate was centrifuged, and 100 μL of the supernatant was transferred to another 96-well plate to determine hemoglobin release spectrophotometrically at 567 nm. Percent hemolysis was calculated by the following formula [drawing 1] where A represents the absorbance of the peptide sample at 567 nm and A0 and At represent zero percent and 100% hemolysis determined in phosphate buffer saline and 1% Triton X-100, respectively.

[4] = 10^6 CFU/mL, highest MIC of three independent experiments in triplicate
[5] = hRBC suspension 4% in PBS, hemoglobin release at 567 nm, 1% Triton X-100 = 100%
[6] = value in parentheses (μM), hRBC 4% in PBS, 567 nm

Substance	MIC, MRSA (ATCC BAA-1556) (MRSA (ATCC BAA-1556); [4])	MIC, MRSA (ATCC BAA-1556) (MRSA (ATCC BAA-1556); value in parentheses (μM))	MIC, E. coli (ATCC 25922) (E. coli (ATCC 25922); [4])	MIC, E. coli (ATCC 25922) (E. coli (ATCC 25922); value in parentheses (μM))	MIC, S. aureus (ATCC 29213) (S. aureus (ATCC 29213); [4])	MIC, S. aureus (ATCC 29213) (S. aureus (ATCC 29213); value in parentheses (μM))	MIC, P. aeruginosa (ATCC 27883) [1, 4]	MIC, P. aeruginosa (ATCC 27883) ([1]; value in parentheses (μM))	MIC, K. pneumoniae (ATCCBAA-1705) [2, 4]	MIC, K. pneumoniae (ATCCBAA-1705) ([2]; value in parentheses (μM))	HC50 (concentration at which 50% hemolysis was observed) [3, 5]	HC50 (concentration at which 50% hemolysis was observed) [3, 6]
H-RAWRRWWARA-NH2 [4g]	> 100 µg/mL	> 70.74 µM	> 100 µg/mL	> 70.74 µM	> 100 µg/mL	> 70.74 µM	> 100 µg/mL	> 70.74 µM	> 100 µg/mL	> 70.74 µM	> 500 µg/mL	> 353.69 µM
H-RAWRRAWRAW-NH2 [4a]	> 100 µg/mL	> 70.74 µM	> 100 µg/mL	> 70.74 µM	> 100 µg/mL	> 70.74 µM	> 100 µg/mL	> 70.74 µM	> 100 µg/mL	> 70.74 µM	> 500 µg/mL	> 353.69 µM
RAARRWARWWR-NH2 [5a]	100 µg/mL	63.70 µM	> 100 µg/mL	> 63.70 µM	100 µg/mL	63.70 µM	> 100 µg/mL	> 63.70 µM	> 100 µg/mL	> 63.70 µM	> 500 µg/mL	> 318.50 µM
RWARRWWRA-NH2 [3c]	> 100 µg/mL	> 74.48 µM	> 100 µg/mL	> 74.48 µM	> 100 µg/mL	> 74.48 µM	> 100 µg/mL	> 74.48 µM	> 100 µg/mL	> 74.48 µM	> 500 µg/mL	> 372.42 µM
WRRWARRW-NH2 [2d]	> 100 µg/mL	> 78.65 µM	> 100 µg/mL	> 78.65 µM	> 100 µg/mL	> 78.65 µM	> 100 µg/mL	> 78.65 µM	> 100 µg/mL	> 78.65 µM	> 500 µg/mL	> 393.23 µM
Ac-RWLRRWLRWWR-NH2 [5f]	12.5 µg/mL	6.90 µM	50 µg/mL	27.61 µM	12.5 µg/mL	6.90 µM	25 µg/mL	13.80 µM	50 µg/mL	27.61 µM	65 µg/mL	35.89 µM
RAWRRWWRA-NH2 [3b]	> 100 µg/mL	> 74.48 µM	> 100 µg/mL	> 74.48 µM	> 100 µg/mL	> 74.48 µM	> 100 µg/mL	> 74.48 µM	> 100 µg/mL	> 74.48 µM	> 500 µg/mL	> 372.42 µM
Ac-RWIRRWIRWWR-NH2 [5e]	50 µg/mL	27.61 µM	100 µg/mL	55.21 µM	50 µg/mL	27.61 µM	50 µg/mL	27.61 µM	100 µg/mL	55.21 µM	60 µg/mL	33.13 µM
RRWWRRW-NH2 [1b]	100 µg/mL	83.30 µM	> 100 µg/mL	> 83.30 µM	50 µg/mL	41.65 µM	> 100 µg/mL	> 83.30 µM	> 100 µg/mL	> 83.30 µM	> 500 µg/mL	> 416.52 µM
AWWRRAWRR-NH2 [3f]	> 100 µg/mL	> 74.48 µM	> 100 µg/mL	> 74.48 µM	> 100 µg/mL	> 74.48 µM	> 100 µg/mL	> 74.48 µM	> 100 µg/mL	> 74.48 µM	> 500 µg/mL	> 372.42 µM
